Results: patent publication US9833497B2, “Human originated EGF domain proteins and use of the same” (CHENGDU SOURCEBIO LIMITED-LIABILITY COMPANY, priority 2013, dated 2017)

Columns and labels:
Type in all cases: cell-based
Proteus mirabilis = assay: MIC against Gram-negative bacteria: Proteus mirabilis; conditions: 5×10^5 CFU/mL
Summary of the method: (§1)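 Growth inhibition by human EGF domain proteins was scored in LB liquid culture seeded at 5×10^5 CFU/mL. Protein was applied as a two-fold dilution series in triplicate, with shaking incubation at 37° C; MIC is the lowest concentration giving no growth.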

Serratia marcescens = assay: MIC against Gram-negative bacteria: Serratia marcescens; conditions: 5×10^5 CFU/mL
Summary of the method: as §1

E. coli BL21 = assay: MIC against Gram-negative bacteria: E. coli BL21; conditions: 5×10^5 CFU/mL
Summary of the method: as §1

Aeromonas hydrophila = assay: MIC against Gram-negative bacteria: Aeromonas hydrophila; conditions: 5×10^5 CFU/mL
Summary of the method: as §1

Pseudomonas aeruginosa = assay: MIC against Gram-negative bacteria: Pseudomonas aeruginosa; conditions: 5×10^5 CFU/mL
Summary of the method: as §1

Moraxella catarrhalis = assay: MIC against Gram-negative bacteria: Moraxella catarrhalis; conditions: 5×10^5 CFU/mL
Summary of the method: as §1

Citrobacter diversus = assay: MIC against Gram-negative bacteria: Citrobacter diversus; conditions: 5×10^5 CFU/mL
Summary of the method: as §1

E. coli DH5α = assay: Antibacterial activity: MIC and growth curve against E. coli DH5α in 96-well plate; conditions: minimal inhibitory concentration against E. coli DH5α; 96-well plate, 5×10^5 CFU/mL, 37° C., judged after 8 h
Summary of the method: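 MIC taken as lowest protein level with no bacterial growth, tracked by A600 every 30 min during 37 °C, 175 rpm culture. Two-fold protein series 50-12.5 μg/mL final, triplicate wells, against 5×10^5 CFU/mL of LB-washed mid-log cells.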

Proteus vulgaris = assay: MIC against Gram-negative bacteria: Proteus vulgaris; conditions: 5×10^5 CFU/mL
Summary of the method: as §1

Enterobacter cloacae = assay: MIC against Gram-negative bacteria: Enterobacter cloacae; conditions: 5×10^5 CFU/mL
Summary of the method: as §1

Klebsiella pneumonia = assay: MIC against Gram-negative bacteria: Klebsiella pneumonia; conditions: 5×10^5 CFU/mL
Summary of the method: as §1

[1] = 10 h cultivation at 37° C., two-fold serial dilution
[2] = Proteus mirabilis, 10 h cultivation at 37° C.
[3] = Serratia marcescens, 10 h cultivation at 37° C.
[4] = E. coli BL21, 10 h cultivation at 37° C.
[5] = Aeromonas hydrophila, 10 h cultivation at 37° C.
[6] = Pseudomonas aeruginosa, 10 h cultivation at 37° C.
[7] = Moraxella catarrhalis, 10 h cultivation at 37° C.
[8] = Citrobacter diversus, 10 h cultivation at 37° C.
[9] = Proteus vulgaris, 10 h cultivation at 37° C.
[10] = Enterobacter cloacae, 10 h cultivation at 37° C.
[11] = Klebsiella pneumonia, 10 h cultivation at 37° C.

## PRT1187 (NTNDCNPLPCYNGGICVDGVNWFRCECAPGFAGPDCR; listed as Homo sapiens)
Proteus mirabilis; [1]
  MIC P. mirabilis: 25 µg/mL
Serratia marcescens; [1]
  MIC S. marcescens: 12.5 µg/mL
E. coli BL21; [1]
  MIC E. coli BL21: 25 µg/mL
Aeromonas hydrophila; [1]
  MIC A. hydrophila: 12.5 µg/mL
Pseudomonas aeruginosa; [1]
  MIC P. aeruginosa: 12.5 µg/mL
Moraxella catarrhalis; [1]
  MIC M. catarrhalis: 12.5 µg/mL
Citrobacter diversus; [1]
  MIC C. diversus: 12.5 µg/mL
E. coli DH5α
  MIC: 50 µg/mL
Proteus vulgaris; [1]
  MIC P. vulgaris: 12.5 µg/mL
Enterobacter cloacae; [1]
  MIC E. cloacae: 25 µg/mL
Klebsiella pneumonia; [1]
  MIC K. pneumonia: 25 µg/mL

## PRT1411 (SVDNCPSNCYGNGDCISGTCHCFLGFLGPDCG; listed as Homo sapiens)
Proteus mirabilis; [2]
  MIC against P. mirabilis: 12.5 µg/mL
Serratia marcescens; [3]
  MIC against S. marcescens: 12.5 µg/mL
E. coli BL21; [4]
  MIC against E. coli BL21: 25 µg/mL
Aeromonas hydrophila; [5]
  MIC against A. hydrophila: 12.5 µg/mL
Pseudomonas aeruginosa; [6]
  MIC against P. aeruginosa: 12.5 µg/mL
Moraxella catarrhalis; [7]
  MIC against M. catarrhalis: 12.5 µg/mL
Citrobacter diversus; [8]
  MIC against C. diversus: 12.5 µg/mL
E. coli DH5α
  MIC: 12.5 µg/mL
Proteus vulgaris; [9]
  MIC against P. vulgaris: 25 µg/mL
Enterobacter cloacae; [10]
  MIC against E. cloacae: 12.5 µg/mL
Klebsiella pneumonia; [11]
  MIC against K. pneumonia: 25 µg/mL

## PRT1297 (NACLSSPCKNNGTCTQDPVELYRCACPYSYKGKDCT; listed as Homo sapiens)
Proteus mirabilis; Proteus mirabilis, 96-well plate, 37° C., 10 h
  MIC against P. mirabilis: 25 µg/mL
Serratia marcescens; Serratia marcescens, 96-well plate, 37° C., 10 h
  MIC against S. marcescens: 50 µg/mL
E. coli BL21; E. coli BL21, 96-well plate, 37° C., 10 h
  MIC against E. coli BL21: 50 µg/mL
Aeromonas hydrophila; Aeromonas hydrophila, 96-well plate, 37° C., 10 h
  MIC against A. hydrophila: 12.5 µg/mL
Pseudomonas aeruginosa; Pseudomonas aeruginosa, 96-well plate, 37° C., 10 h
  MIC against P. aeruginosa: 12.5 µg/mL
Moraxella catarrhalis; Moraxella catarrhalis, 96-well plate, 37° C., 10 h
  MIC against M. catarrhalis: 50 µg/mL
Citrobacter diversus; Citrobacter diversus, 96-well plate, 37° C., 10 h
  MIC against C. diversus: 25 µg/mL
E. coli DH5α
  MIC: 12.5 µg/mL
Proteus vulgaris; Proteus vulgaris, 96-well plate, 37° C., 10 h
  MIC against P. vulgaris: 12.5 µg/mL
Enterobacter cloacae; Enterobacter cloacae, 96-well plate, 37° C., 10 h
  MIC against E. cloacae: 50 µg/mL
Klebsiella pneumonia; Klebsiella pneumonia, 96-well plate, 37° C., 10 h
  MIC against K. pneumonia: 25 µg/mL

## PRT1402 (DGCPDLCNGNGRCTLGQNSWQCVCQTGWRGPGCN; listed as Homo sapiens)
Proteus mirabilis; [2]
  MIC against P. mirabilis: 50 µg/mL
Serratia marcescens; [3]
  MIC against S. marcescens: 12.5 µg/mL
E. coli BL21; [4]
  MIC against E. coli BL21: 12.5 µg/mL
Aeromonas hydrophila; [5]
  MIC against A. hydrophila: 25 µg/mL
Pseudomonas aeruginosa; [6]
  MIC against P. aeruginosa: 25 µg/mL
Moraxella catarrhalis; [7]
  MIC against M. catarrhalis: 25 µg/mL
Citrobacter diversus; [8]
  MIC against C. diversus: 12.5 µg/mL
E. coli DH5α
  MIC: 25 µg/mL
Proteus vulgaris; [9]
  MIC against P. vulgaris: 25 µg/mL
Enterobacter cloacae; [10]
  MIC against E. cloacae: 50 µg/mL
Klebsiella pneumonia; [11]
  MIC against K. pneumonia: 12.5 µg/mL

## PRT459 (RTAKCEPACRHGGVCVRPNKCLCKKGYLGPQCE; listed as Homo sapiens)
Proteus mirabilis; 96-well plate, 37° C., 10 h
  MIC against P. mirabilis: 25 µg/mL
Serratia marcescens; 96-well plate, 37° C., 10 h
  MIC against S. marcescens: 25 µg/mL
E. coli BL21; 96-well plate, 37° C., 10 h
  MIC against E. coli BL21: 12.5 µg/mL
Aeromonas hydrophila; 96-well plate, 37° C., 10 h
  MIC against A. hydrophila: 12.5 µg/mL
Pseudomonas aeruginosa; 96-well plate, 37° C., 10 h
  MIC against P. aeruginosa: 25 µg/mL
Moraxella catarrhalis; 96-well plate, 37° C., 10 h
  MIC against M. catarrhalis: 50 µg/mL
Citrobacter diversus; 96-well plate, 37° C., 10 h
  MIC against C. diversus: 25 µg/mL
E. coli DH5α
  MIC: 25 µg/mL
Proteus vulgaris; 96-well plate, 37° C., 10 h
  MIC against P. vulgaris: 12.5 µg/mL
Enterobacter cloacae; 96-well plate, 37° C., 10 h
  MIC against E. cloacae: 25 µg/mL
Klebsiella pneumonia; 96-well plate, 37° C., 10 h
  MIC against K. pneumonia: 50 µg/mL
